Laboratory results: a compilation of properties of binary mixtures (doi:10.1039/b819795b)

Assay: xn = mol fraction of the nth substance listed
Conditions: 101 kPa

CCCCCCC + CCCCCCCC[n+]1ccn(C)c1.F[P-](F)(F)(F)(F)F
x1 = 1
Conditions | speed of sound [m/s]
293.15 K | 1153
298.15 K | 1131
303.15 K | 1110

CCCCCC + CCCCCCCC[n+]1ccn(C)c1.F[P-](F)(F)(F)(F)F
x1 = 1
Conditions | speed of sound [m/s]
293.15 K | 1100
298.15 K | 1078

CCCCCCCC[n+]1ccn(C)c1.F[P-](F)(F)(F)(F)F + CCCCCCC
speed of sound [m/s]
Conditions | x2 = 0 | x2 = 0.0074 | x2 = 0.0516 | x2 = 0.0803
293.15 K | 1424 | 1421 | 1406 | –
298.15 K | 1408 | – | 1391 | 1381
303.15 K | – | 1391 | – | 1366

CC(C)O + CCCCCCCC[n+]1ccn(C)c1.F[P-](F)(F)(F)(F)F
Conditions | speed of sound [m/s]
293.15 K, x1 = 1 | 1156

CCCCCCCC[n+]1ccn(C)c1.F[P-](F)(F)(F)(F)F + CCCCCC
speed of sound [m/s]
Conditions | x2 = 0 | x2 = 0.0468 | x2 = 0.0712 | x2 = 0.0893 | x2 = 0.1268
293.15 K | 1424 | 1408 | 1401 | 1394 | –
298.15 K | 1408 | 1393 | 1385 | – | 1364
303.15 K | 1393 | 1378 | – | 1364 | 1349

CCCCCCCC[n+]1ccn(C)c1.F[P-](F)(F)(F)(F)F + CC(C)O
speed of sound [m/s]
Conditions | 293.15 K | 298.15 K | 303.15 K
x1 = 0.0004 | 1156 | 1140 | 1121
x1 = 0.0009 | 1157 | 1140 | 1122
x1 = 0.0014 | 1157 | – | 1122
x1 = 0.0024 | 1158 | 1141 | 1123
x1 = 0.003 | 1158 | 1141 | 1123
x1 = 0.0053 | – | 1142 | 1125
x1 = 0.0098 | – | – | 1128
x2 = 0 | 1424 | 1408 | 1393
x2 = 0.0069 | – | 1407 | 1393
x2 = 0.0965 | 1412 | 1397 | 1384
x2 = 0.2012 | 1395 | 1382 | 1368
x2 = 0.304 | 1379 | 1366 | –
x2 = 0.4009 | 1364 | 1351 | 1339
x2 = 0.4943 | 1340 | – | –
x2 = 0.5989 | 1310 | 1296 | –
x2 = 0.6487 | – | 1279 | 1267
x2 = 0.6964 | – | 1261 | 1252
x2 = 0.7469 | – | – | 1235
